Experiment: solubility of the bio-liquid crystal polymer in solvents
Assay type: physicochemical
Set-up: key: +a: soluble only when heated; +: dissolved; −: not dissolved

SMILES: O=C(O)/C=C/c1ccc(O)cc1 [4HCA, 4-hydroxycinnamic acid]
- solubility (solvent DMF): +
- solubility (solvent DMSO): +
- solubility (solvent NMP): +
- solubility (solvent THF): +
- solubility (solvent acetone): +
- solubility (solvent acetonitrile): +
- solubility (solvent chloroform): −
- solubility (solvent ethanol): +
- solubility (solvent hexane): −
- solubility (solvent methanol): +
- solubility (solvent pentafluorophenol): +
- solubility (solvent toluene): −
- solubility (solvent water): ^+a

Source: US7182884B2, “Bio-liquid crystal polymer and shaped material using same” (Toyoda Gosei Co., Ltd., priority 2003, dated 2007)
